Assay results taken from patent US20070259895A1, “MGluR5 modulators VI” (AstraZeneca AB, priority 2006, published 2007).

What was measured:
human mGluR5d = target: T1, human mGluR5d (Homo sapiens, UniProt P41594); assay: FLIPR assay, mobilization of intracellular calcium in cells expressing mGluR5d; assay type: cell-based
T1 construct: expressed in transfected cells; The IP3 assay uses GHEK cells stably expressing human mGluR5d
Source text: The properties of the compounds of the invention can be analyzed using standard assays for pharmacological activity. Examples of glutamate receptor assays are well known in the art as described in for example Aramori et al, Neuron 8:757 (1992), Tanabe et al., Neuron 8:169 (1992), Miller et al., J. Neuroscience 15: 6103 (1995), Balazs, et al., J. Neurochemistry 69:151 (1997). The methodology described in these publications is incorporated herein by reference. Conveniently, the compounds of the invention can be studied by means of an assay (FLIPR) that measures the mobilization of intracellular calcium, [Ca^2+]i in cells expressing mGluR5 or another assay (IP3) that measures inositol phosphate turnover.
Cells expressing human mGluR5d as described in WO97/05252 are seeded at a density of 100,000 cells per well on collagen coated clear bottom 96-well plates with black sides and experiments are done 24 h following seeding. […] The fluorescence signal is sampled 50 times at 1 second intervals followed by 3 samples at 5 second intervals immediately after each of the two additions. Responses are measured as the difference between the peak height of the response to agonist, less the background fluorescence within the sample period. […]

[1] = Determination of brain to plasma ratio in rat; assay type: in vivo, female Sprague Dawley rats; details: female, Sprague-Dawley, brain and plasma, read-out: Brain to Plasma Ratio of compound in Rat
Experimental: Brain to plasma ratios are estimated in female Sprague Dawley rats. The compound is dissolved in water or another appropriate vehicle. For determination of brain to plasma ratio the compound is administrated as a subcutaneous, or an intravenous bolus injection, or an intravenous infusion, or an oral administration. At a predetermined time point after the administration a blood sample is taken with cardiac puncture. The rat is terminated by cutting the heart open, and the brain is immediately retained. The blood samples are collected in heparinized tubes and centrifuged within 30 minutes, in order to separate the plasma from the blood cells. The plasma is transferred to 96-well plates and stored at −20° C. until analysis. The brains are divided in half, and each half is placed in a pre-tarred tube and stored at −20° C. until analysis. Prior to the analysis, the brain samples are thawed and 3 ml/g brain tissue of distilled water is added to the tubes. The brain samples are sonicated in an ice bath until the samples are homogenized. Both brain and plasma samples are precipitated with acetonitrile. After centrifugation, the supernatant is diluted with 0.2% formic acid. […] After reconstitution of the residuals the samples are ready for injection onto the HPLC column.

T1 sequence (P41594 21-942 isoform P41594-3 limits assumed): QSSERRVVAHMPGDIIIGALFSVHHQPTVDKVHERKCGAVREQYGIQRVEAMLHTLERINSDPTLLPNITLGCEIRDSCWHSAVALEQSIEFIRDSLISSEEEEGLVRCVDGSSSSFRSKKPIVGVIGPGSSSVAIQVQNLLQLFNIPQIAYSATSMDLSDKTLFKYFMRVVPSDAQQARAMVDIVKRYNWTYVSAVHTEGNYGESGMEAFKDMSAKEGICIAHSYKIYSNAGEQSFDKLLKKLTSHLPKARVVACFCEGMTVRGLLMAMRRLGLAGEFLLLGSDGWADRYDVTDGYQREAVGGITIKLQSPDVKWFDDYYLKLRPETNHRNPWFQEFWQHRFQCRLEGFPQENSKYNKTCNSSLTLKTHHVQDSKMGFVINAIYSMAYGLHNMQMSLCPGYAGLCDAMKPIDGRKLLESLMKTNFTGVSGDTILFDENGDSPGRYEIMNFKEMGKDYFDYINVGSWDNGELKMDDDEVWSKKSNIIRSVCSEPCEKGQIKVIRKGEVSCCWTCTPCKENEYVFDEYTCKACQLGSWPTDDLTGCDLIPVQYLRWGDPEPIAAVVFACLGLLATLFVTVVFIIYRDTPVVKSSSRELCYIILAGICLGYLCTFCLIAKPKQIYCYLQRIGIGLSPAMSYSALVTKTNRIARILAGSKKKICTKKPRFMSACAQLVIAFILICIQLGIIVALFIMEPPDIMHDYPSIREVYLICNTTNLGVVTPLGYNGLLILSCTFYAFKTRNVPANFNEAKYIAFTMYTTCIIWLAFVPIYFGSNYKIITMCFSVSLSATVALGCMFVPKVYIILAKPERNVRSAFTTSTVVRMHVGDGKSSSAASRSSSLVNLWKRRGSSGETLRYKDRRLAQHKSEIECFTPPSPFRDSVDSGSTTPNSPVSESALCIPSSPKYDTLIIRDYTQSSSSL

COc1cc(-c2nnc3n2CCCN3Cc2cc(-c3cccc(Cl)c3)on2)ccn1 [Example 11.2, 8-{[5-(3-Chlorophenyl)isoxazol-3-yl]methyl}-3-(2-methoxypyridin-4-yl)-5,6,7,8-tetrahydro[1,2,4]triazolo[4,3-a]pyrimidine]
IC50 (human mGluR5d): 0.051 µM
Kp [1]: 0.36
